The values that follow come from US20020182239A1, “Composition and method for inhibiting polar capsule discharge and protecting a subject from nematocyst sting” (priority 2002, published 2002).

Experiment [1] concerns isolated nematocyst capsules. As to conditions: 50 mM CaCl2; cited from earlier work.
Experiment [2] concerns jellyfish Rhopilema nomadica nematocysts.

Molecules are shown by their SMILES. Where two headings read alike, the source gives them in different places.

For the compound `[Ca+2].[Cl-].[Cl-]` [CaCl2], the “discharge of isolated nematocyst capsules” value in experiment [1] is “do not discharge”.
With `C=O` [formalin], the “nematocysts in skin treated with ointment base alone relative to skin treated with formalin” value in experiment [2] (0.1% formalin) was “more than 5 times”. Also, the “decrease in nematocysts skin penetration” value in experiment [2] (0.1% formalin in ointment base vs ointment base alone) is given as “over 80%”. Besides, the “nematocyst discharge and skin penetration” value in experiment [2] (formalin concentration 0.01%) is “reduces nematocyst discharge and skin penetration”; in experiment [2] (formalin concentration 0.05%), “reduces nematocyst discharge and skin penetration”. The “average number of nematocysts counted on a skin sample” value in experiment [2] (ointment base containing 0.1% formalin, human skin sections, tentacles 10 seconds) is 5+/−4 nematocysts.
